The record followed here is article PMC9030827, “In Vitro Effects of Mitochondria-Targeted Antioxidants in a Small-Cell Carcinoma of the Ovary of Hypercalcemic Type and in Type 1 and Type 2 Endometrial Cancer” (Biomedicines, 2022).

“Also recorded” adds a separate entry of the source. Read-outs that look alike come from different tables or passages of the source. Where only a bound is given, the exact number is not on record here.

The test system of assay [1] is Ishikawa cells. In words: Nuclear changes by Höechst staining. In kind it is cell-based, human. The following applies: 72 h, 5 μM Mito6_TPP, 10 μM Mito6_isoq.; for Nucleus shape and chromatin condensation (Höechst staining): 20 μM Mito6_picol. As for the experimental part:
(§1) Morphological changes in all cell lines were evaluated by phase-contrast microscopy (Eclipse TS100 Inverted Microscope, Nikon, Tokyo, Japan) and Giemsa staining. […] The cells were plated in 24-well plates with coverslips using the densities of 1 × 10^5 cells/well in Ishikawa and Hec50co and 2.5 × 10^5 cells/well in COV434 and HFF-1. After adherence, the cells were treated with Mito6_TPP (5 μM), Mito6_picol. (20 μM), or Mito6_isoq. (10 μM) and incubated at 37 °C with 5% CO2 for 72 h. For Giemsa staining, the cells were fixated with paraformaldehyde 4% in Phosphate Buffered Saline (PBS) for 15 min, stained with Giemsa solution for 30 min, mounted with DPX, and observed through bright field microscopy. For Höechst staining, the cells were incubated with 0.5 μg/mL Höechst 33342 in PBS for 20 min in the dark, mounted in Fluoroshield, and observed under a fluorescence microscope equipped with an excitation filter with maximum transmission at 360/400 nm. In both stainings, the cells were observed using the microscope Eclipse CI (Nikon, Japan) and the images were processed with Nikon NIS Elements Image Software (Nikon, Japan).

The subject of assay [2] is Hec50co cells. Description: Nuclear changes by Höechst staining. Format: cell-based, human. The following applies: 72 h, 5 μM Mito6_TPP, 10 μM Mito6_isoq.; for Nucleus shape and chromatin condensation (Höechst staining): 20 μM Mito6_picol. On the procedure: as §1
Assay [3] has as its system COV434 cells. In words: Nuclear changes by Höechst staining. Format: cell-based, human. The note with it: COV434, 72 h, 5 μM Mito6_TPP, 10 μM Mito6_isoq.; for Nucleus shape and chromatin condensation (Höechst staining): 20 μM Mito6_picol. On the procedure:
as §1

The test system of assay [4] is Ishikawa cells. In words: MTT cell viability assay. Format: cell-based. The following applies: Homo sapiens. On the procedure: (§2) Experiments were performed using the following cell lines: Ishikawa, Hec50co, COV434, and HFF-1. The Ishikawa cell line (RRID: CVCL_2529) was established from an endometrial adenocarcinoma. The Hec50co cell line (RRID: CVCL_4Y59) consists of poorly differentiated endometrial tumor cells isolated from a patient with advanced disease. Both the Ishikawa and Hec50co cell lines were kindly provided by Dr. Kim K. Leslie (The University of New Mexico Health Sciences Center, Albuquerque, NM, USA). COV434 (RRID: CVCL_2010) were initially isolated from a patient diagnosed with a granulosa cell tumor but were recently classified as cells from a small-cell carcinoma of the ovary, hypercalcemic type.The COV434 cells were purchased from the European Collection of Authenticated Cell Cultures (ECACC) (#07071909). HFF-1 (RRID: CVCL_3285) is an immortalized human foreskin fibroblasts cell line, obtained from the American Type Culture Collection (ATCC), which was used as control, as they are non-tumorous cells. The Ishikawa and Hec50co cells were maintained in Dulbecco’s Modified Eagle Medium/F12 (DMEM/F12) supplemented with 5% Foetal Bovine Serum (FBS). COV434 cells were maintained in DMEM/F12 supplemented with 10% FBS. HFF-1 were maintained in Roswell Park Memorial Institute 1640 (RPMI 1640) supplemented with 10% FBS. All mediums were supplemented with 1% AB-AM and all cells were kept at 37 °C with 5% CO2. The treatment with the compounds was done in the respective cell medium supplemented with 2% FBS and 24 h after platting the cells in the culture medium with 5% FBS to allow their adherence.
(§3) The Ishikawa, Hec50co, COV434, and HFF-1 cell lines were plated at a density of 5 × 10^4 cells/well in transparent 96-well plates. After 24 h, the cells were treated with Mito6_TPP, Mito6_picol., or Mito6_isoq. (0.01–100 μM) and incubated at 37 °C with 5% CO2 for 24, 48, or 72 h. […] The conditions of the methylthiazolyldiphenyl-tetrazolium bromide (MTT) assay were adapted from the work of Banerjee et al.. Briefly, MTT was added to a final concentration of 0.5 mg/mL, and the cells were incubated for 3 h at 37 °C with 5% CO2. After the 3 h, purple MTT formazan crystals were dissolved by agitation for 15 min in a solution of DMSO/isopropanol (ratio 3:1) and quantified spectrophotometrically at 540 nm. The neutral red (NR) assay conditions were based on the work developed by Repetto et al.. Briefly, after the incubation time, cells were incubated with NR at 40 μg/mL in an FBS-free cell medium for 3 h. The cells were then incubated with a solution of 50% ethanol (96% v/v), 49% deionized water, and 1% glacial acetic acid, with shaking for 15 min. The NR extracted from the cells was measured at 540 nm. The LDH cytotoxicity assay was not performed on the HFF-1 cells due to the lack of evidence of cell death at the concentrations tested. After the incubation time, this assay was performed using a Thermo Scientific Pierce LDH Cytotoxicity Assay Kit according to the manufacturer’s instructions. For all assays, the absorbance was read using a BioTek Synergy HTX Multi-Mode Microplate Reader equipped with BioTek Gen5 Data Collection and Analysis Software (BioTek Instruments, Winooski, VT, USA).
(§4) Data were evaluated using the one- or two-way analysis of variance (ANOVA) test followed by Bonferroni’s test for multiple comparisons. The data presented was expressed as mean ± SEM (Standard Error of the Mean) of a minimum of three and a maximum of seven independent experiments performed in triplicate. Values of p < 0.05 were considered statistically significant. Half of the maximal effective concentration (EC50) values were estimated by interpolation of dose-response curves and reported as a mean with a 95% confidence interval (CI 95%). All statistical analysis was performed using GraphPad Prism Software 8.0 (GraphPad Software, Inc., San Diego, CA, USA). […]
On the technique in general: Formazan colour is commonly taken as a measure of viable cells.

The subject of assay [5] is Hec50co cells. In words: MTT cell viability assay. In kind it is cell-based. The note with it: Homo sapiens. As for the experimental part: as §2, §3, §4
Assay [6] deals with COV434 cells. Description: MTT cell viability assay. In kind it is cell-based. The following applies: Homo sapiens. On the procedure: as §2, §3, §4
Assay [7] has as its system HFF-1 cells. In words: MTT cell viability assay. In kind it is cell-based. The following applies: Homo sapiens. As for the experimental part: as §2, §3, §4
Assay [8] deals with Ishikawa cells. In words: Cell morphology by Giemsa staining. In kind it is cell-based, human. The following applies: 72 h, 5 μM Mito6_TPP, 20 μM Mito6_picol., 10 μM Mito6_isoq. As for the experimental part:
as §1

Assay [9] concerns COV434 cells. In words: Cell morphology by Giemsa staining. The following applies: COV434, 72 h; 5 μM Mito6_TPP, 20 μM Mito6_picol., 10 μM Mito6_isoq. In kind it is cell-based, human. As for the experimental part: as §1
[10] abbreviates: 24 h, read-out: EC50 (decrease of viability), MTT assay.
[11] abbreviates: 48 h, read-out: EC50 (decrease of viability), MTT Assay.
[12] abbreviates: 72 h, read-out: EC50 (decrease of viability), MTT assay.
Where [13] appears, read: COV434, 24 hours of incubation, read-out: EC50 (decrease of viability), MTT assay.
The mark [14] stands for this setting: COV434, 48 h of incubation, read-out: EC50 (decrease of viability), MTT Assay.
The mark [15] stands for this setting: COV434, 72 hours of incubation, read-out: EC50 (decrease of viability), MTT assay.
Where [16] appears, read: 24 hours of incubation, read-out: EC50 (decrease of viability), MTT assay.
Where [17] appears, read: 48 h of incubation, read-out: EC50 (decrease of viability), MTT Assay.
Where [18] appears, read: 72 hours of incubation, read-out: EC50 (decrease of viability), MTT assay.
Where [19] appears, read: Hec50co, 24 hours of incubation, read-out: EC50 (decrease of viability), MTT assay.
The mark [20] stands for this setting: Hec50co, 48 h of incubation, read-out: EC50 (decrease of viability), MTT Assay.
[21] abbreviates: Hec50co, 72 hours of incubation, read-out: EC50 (decrease of viability), MTT assay.
Where [22] appears, read: HFF-1, 48 h of incubation, read-out: EC50 (decrease of viability), MTT Assay.

As usually defined, the EC50 is the concentration giving half of the maximal effect.

Take `O=C(/C=C/c1ccc(O)c(O)c1)NCCCCCCCCCC[P+](c1ccccc1)(c1ccccc1)c1ccccc1` [Mito6_TPP]: the “Nuclear fragmentation (Höechst staining)” value in assay [1], in [2] and in [3] was “nuclear fragmentation visible” in each case. The “Nucleus shape and chromatin condensation (Höechst staining)” value (from here on “Nucleus shape and chromatin condensation”) in assay [1] is “changes in the nucleus shape and the chromatin condensation”; in assay [2] it was “changes in the nucleus shape and the chromatin condensation”; in assay [3], “changes in the nucleus shape and the chromatin condensation”. For the same molecule, the EC50 in [4] (setting [10]) was 9.14 µM; in assay [4] (setting [11]), 2.45 µM; in assay [4] (setting [12]) it was 0.925 µM; in assay [5] (setting [10]) it was 7.75 µM; in assay [5] (setting [11]), 1.87 µM; in assay [5] (setting [12]), 0.847 µM. In addition, the 50% effective concentration (EC50) in assay [6] (setting [13]) was 4.64 µM; in [6] (setting [14]), 2.37 µM; in assay [6] (setting [15]), 0.577 µM; in assay [7] (HFF-1, 24 h, read-out: EC50 (decrease of viability), MTT assay), over 100 µM; in assay [7] (HFF-1, 48 h, read-out: EC50 (decrease of viability), MTT Assay) it was 44.5 µM; in assay [7] (HFF-1, 72 h, read-out: EC50 (decrease of viability), MTT assay), 37 µM. In addition, the “Cell morphology changes (Giemsa staining)” value (shortened to “Cell morphology changes”) was “altered cell shapes and indications of chromatin condensation” in assay [8]; “altered cell shapes and indications of chromatin condensation” in assay [9].
Consider `O=C(/C=C/c1ccc(O)c(O)c1)NCCCCCCCCCC[n+]1ccc2ccccc2c1` [Mito6_isoq.], for which the “Nuclear fragmentation (Höechst staining)” value in [1], in [2] and in [3] was “nuclear fragmentation visible” throughout. In addition, the “Nucleus shape and chromatin condensation” value in assay [1] is “changes in the nucleus shape and the chromatin condensation”; in assay [2] it was “changes in the nucleus shape and the chromatin condensation”; in assay [3], “changes in the nucleus shape and the chromatin condensation”. Moreover, the EC50 in [4] (setting [16]) turned out to be 29.9 µM; in assay [4] (setting [17]) it was 15.4 µM; in assay [4] (setting [18]), 7.16 µM; in assay [5] (setting [19]) it was 19 µM; in assay [5] (setting [20]), 9.55 µM; in assay [5] (setting [21]), 6.59 µM. In addition, the concentration giving a half-maximal response (EC50) in assay [6] (setting [13]) is 29.5 µM; in assay [6] (setting [14]), 7.16 µM; in [6] (setting [15]) it was 3.16 µM; in assay [7] (setting [22]) it was over 100 µM. For the same molecule, the “Cell morphology changes” value in assay [8] is on record as “cell shape alterations”; in [9], “cell shape alterations; also recorded: indications of chromatin condensation”.
Consider `Cc1cc[n+](CCCCCCCCCCNC(=O)/C=C/c2ccc(O)c(O)c2)cc1` [Mito6_picol.], for which the “Nucleus shape and chromatin condensation” value in assay [1], in [2] and in assay [3] was “did not induce any morphological changes” throughout. The concentration for a half-maximal effect (EC50) in [4] (setting [16]) is 42.9 µM; in assay [4] (setting [17]) it was 23.6 µM; in [4] (setting [18]), 10.8 µM; in assay [5] (setting [19]) it was 27.3 µM; in [5] (setting [20]), 13.8 µM; in assay [5] (setting [21]), 17.2 µM. For the same molecule, the concentration for a half-maximal effect (EC50) is 53.2 µM in assay [6] (setting [13]), 15.9 µM in assay [6] (setting [14]), 6.6 µM in assay [6] (setting [15]) and over 100 µM in [7] (setting [22]). The “Cell morphology changes” value in assay [8] and in assay [9] was “did not induce any morphological changes” each time.
